According to US12049450B2, “Pyridyloxy-carboxylate derivative and preparation method therefor, herbicidal composition, and use” (Qingdao Kingagroot Chemical Compound Co., Ltd., priority 2018, dated 2024):

Assays:
Assay in all cases: Post-emergence test experiment (greenhouse pot, spray at 2-3 leaf stage)
Assay type in all cases: in vivo
Details in all cases: 1000 g/ha; post-emergence spray at 2-3 leaf stage; assessed after 3 weeks; fresh weight inhibition rate
[1] = tested on: Abutilon theophrasti
Description: (§1) The activity level standard of harmful plants destruction (i. e. growth inhibition rate) is as follows: • Level 5: the growth inhibition rate is greater than 85%; • Level 4: the growth inhibition rate is equal to or greater than 60% and less than 85%; • Level 3: the growth inhibition rate is equal to or greater than 40% and less than 60%; • Level 2: the growth inhibition rate is equal to or greater than 20% and less than 40%; • Level 1: the growth inhibition rate is equal to or greater than 5% and less than 20%; • Level 0: the growth inhibition rate is less than 5%;
(§2) The above described growth inhibition rate is fresh weight inhibition rate.
(§3) Post-emergence test experiment: Monocotyledonous and dicotyledonous weed seeds and main crop seeds (i. e. wheat, corn, rice, soybean, cotton, oilseed, millet and sorghum.) were put into a plastic pot loaded with soil. Then covered with 0.5-2 cm soil, the seeds were allowed to grow in good greenhouse environment. The test plants were treated at 2-3 leaf stage 2 weeks after sowing. The test compounds of the invention were dissolved with acetone respectively, then added with tween-80, and using 1.5 liters per hectare of an emulsible concentrate of methyl oleate as a synergist, and diluted by certain amount of water to certain concentration. The solution was sprayed to the plants with a sprayer. Then the plants were cultured for 3 weeks in the greenhouse, and the experiment result of weed controlling effect after 3 weeks was listed in tables 3-4.

[2] = tested on: Digitaria sanguinalis
Description: as §1, §2, §3

[3] = tested on: Echinochloa crusgalli
Description: as §1, §2, §3

[4] = tested on: Galium spurium
Description: as §1, §2, §3

[5] = tested on: Monochoria vaginalis
Description: as §1, §2, §3

Row | SMILES | Activity level (growth inhibition rate) Abutilon theophrasti [1] | Activity level (growth inhibition rate) Digitaria sanguinalis [2] | Activity level (growth inhibition rate) Echinochloa crusgalli [3] | Activity level (growth inhibition rate) Galium spurium [4] | Activity level (growth inhibition rate) Monochoria Vaginalis [5]
1 | Cc1nc(OC(C)C(=O)OCc2ccccc2)c(Cl)c(N)c1Cl (centres unmarked) [Compound 5] | 5 (Level 5: the growth inhibition rate is greater than 85%) | 5 (Level 5: the growth inhibition rate is greater than 85%) | 5 (Level 5: the growth inhibition rate is greater than 85%) | 5 (Level 5: the growth inhibition rate is greater than 85%) | 5 (Level 5: the growth inhibition rate is greater than 85%)
2 | CC(Oc1nc(C(F)(F)F)c(Cl)c(N)c1Cl)C(=O)SCc1ccccc1 (centres unmarked) [Compound 6] | 5 (Level 5: the growth inhibition rate is greater than 85%) | 5 (Level 5: the growth inhibition rate is greater than 85%) | 5 (Level 5: the growth inhibition rate is greater than 85%) | 5 (Level 5: the growth inhibition rate is greater than 85%) | 5 (Level 5: the growth inhibition rate is greater than 85%)
3 | CCc1c(OC(C)C(=O)SCc2ccccc2)nc(C(F)(F)F)c(CC)c1N (centres unmarked) [Compound 8] | 5 (Level 5: the growth inhibition rate is greater than 85%) | 5 (Level 5: the growth inhibition rate is greater than 85%) | 5 (Level 5: the growth inhibition rate is greater than 85%) | 5 (Level 5: the growth inhibition rate is greater than 85%) | 5 (Level 5: the growth inhibition rate is greater than 85%)
4 | CC(Oc1ncc(C(C)C)c(N)c1Cl)C(=O)OCc1ccccc1 (centres unmarked) [Compound 9] | 5 (Level 5: the growth inhibition rate is greater than 85%) | 5 (Level 5: the growth inhibition rate is greater than 85%) | 5 (Level 5: the growth inhibition rate is greater than 85%) | 5 (Level 5: the growth inhibition rate is greater than 85%) | 5 (Level 5: the growth inhibition rate is greater than 85%)
5 | CC(Oc1nc(Cl)c(C2CC2)c(N)c1Cl)C(=O)OCc1ccccc1 (centres unmarked) [Compound 10] | 5 (Level 5: the growth inhibition rate is greater than 85%) | 5 (Level 5: the growth inhibition rate is greater than 85%) | 5 (Level 5: the growth inhibition rate is greater than 85%) | 5 (Level 5: the growth inhibition rate is greater than 85%) | 5 (Level 5: the growth inhibition rate is greater than 85%)
6 | CC(Oc1nc(C(F)(F)F)c(F)c(N)c1C(C)C)C(=O)OCc1ccccc1 (centres unmarked) [Compound 11] | 5 (Level 5: the growth inhibition rate is greater than 85%) | 5 (Level 5: the growth inhibition rate is greater than 85%) | 5 (Level 5: the growth inhibition rate is greater than 85%) | 5 (Level 5: the growth inhibition rate is greater than 85%) | 5 (Level 5: the growth inhibition rate is greater than 85%)
7 | CC(Oc1ncc(I)c(N)c1I)C(=O)OCc1ccccc1 (centres unmarked) [Compound 13] | 5 (Level 5: the growth inhibition rate is greater than 85%) | 5 (Level 5: the growth inhibition rate is greater than 85%) | 5 (Level 5: the growth inhibition rate is greater than 85%) | 5 (Level 5: the growth inhibition rate is greater than 85%) | 5 (Level 5: the growth inhibition rate is greater than 85%)
8 | CCCc1c(F)nc(OC(C)C(=O)SCc2ccccc2)c(C2CC2)c1N (centres unmarked) [Compound 14] | 5 (Level 5: the growth inhibition rate is greater than 85%) | 5 (Level 5: the growth inhibition rate is greater than 85%) | 5 (Level 5: the growth inhibition rate is greater than 85%) | 5 (Level 5: the growth inhibition rate is greater than 85%) | 5 (Level 5: the growth inhibition rate is greater than 85%)
9 | CC(Oc1nc(F)c(C(F)(F)F)c(N)c1Cl)C(=O)OCc1ccccc1 (centres unmarked) [Compound 15] | 5 (Level 5: the growth inhibition rate is greater than 85%) | 5 (Level 5: the growth inhibition rate is greater than 85%) | 5 (Level 5: the growth inhibition rate is greater than 85%) | 5 (Level 5: the growth inhibition rate is greater than 85%) | 5 (Level 5: the growth inhibition rate is greater than 85%)
10 | CC(Oc1ncc(Cl)c(N)c1C(F)(F)F)C(=O)OCc1ccccc1 (centres unmarked) [Compound 16] | 5 (Level 5: the growth inhibition rate is greater than 85%) | 5 (Level 5: the growth inhibition rate is greater than 85%) | 5 (Level 5: the growth inhibition rate is greater than 85%) | 5 (Level 5: the growth inhibition rate is greater than 85%) | 5 (Level 5: the growth inhibition rate is greater than 85%)
11 | CC(Oc1nc(I)c(Cl)c(N)c1Cl)C(=O)SCc1ccccc1 (centres unmarked) [Compound 17] | 5 (Level 5: the growth inhibition rate is greater than 85%) | 5 (Level 5: the growth inhibition rate is greater than 85%) | 5 (Level 5: the growth inhibition rate is greater than 85%) | 5 (Level 5: the growth inhibition rate is greater than 85%) | 5 (Level 5: the growth inhibition rate is greater than 85%)
12 | CCCc1c(OC(C)C(=O)OCc2ccccc2)nc(Br)c(Cl)c1N (centres unmarked) [Compound 18] | 5 (Level 5: the growth inhibition rate is greater than 85%) | 5 (Level 5: the growth inhibition rate is greater than 85%) | 5 (Level 5: the growth inhibition rate is greater than 85%) | 5 (Level 5: the growth inhibition rate is greater than 85%) | 5 (Level 5: the growth inhibition rate is greater than 85%)
13 | Cc1nc(OC(C)C(=O)OCc2ccccc2)c(C)c(N)c1C (centres unmarked) [Compound 19] | 5 (Level 5: the growth inhibition rate is greater than 85%) | 5 (Level 5: the growth inhibition rate is greater than 85%) | 5 (Level 5: the growth inhibition rate is greater than 85%) | 5 (Level 5: the growth inhibition rate is greater than 85%) | 5 (Level 5: the growth inhibition rate is greater than 85%)
14 | Cc1c(OC(C)C(=O)OCc2ccccc2)ncc(Cl)c1N (centres unmarked) [Compound 21] | 5 (Level 5: the growth inhibition rate is greater than 85%) | 5 (Level 5: the growth inhibition rate is greater than 85%) | 5 (Level 5: the growth inhibition rate is greater than 85%) | 5 (Level 5: the growth inhibition rate is greater than 85%) | 5 (Level 5: the growth inhibition rate is greater than 85%)
15 | CC(Oc1nc(F)c(Cl)c(N)c1C1CC1)C(=O)OCc1ccccc1 (centres unmarked) [Compound 22] | 5 (Level 5: the growth inhibition rate is greater than 85%) | 5 (Level 5: the growth inhibition rate is greater than 85%) | 5 (Level 5: the growth inhibition rate is greater than 85%) | 5 (Level 5: the growth inhibition rate is greater than 85%) | 5 (Level 5: the growth inhibition rate is greater than 85%)
16 | CC(Oc1ncc(Cl)c(N)c1Cl)C(=O)SCc1ccccc1 (centres unmarked) [Compound 23] | 5 (Level 5: the growth inhibition rate is greater than 85%) | 5 (Level 5: the growth inhibition rate is greater than 85%) | 5 (Level 5: the growth inhibition rate is greater than 85%) | 5 (Level 5: the growth inhibition rate is greater than 85%) | 5 (Level 5: the growth inhibition rate is greater than 85%)
